Measurements taken from US6344179B1, “Fluoralkenyl nortropanes” (Emory University, priority 1999, dated 2002).
Where “and” joins values, the source holds several entries; their conditions need not be identical. Equal values may be shown once. Read-outs that look alike come from different tables or passages of the source.

Key:
[1] = molecular target: T1, human SERT (Homo sapiens, UniProt P31645); assay: Competitive binding in transfected cell lines, [3H]Citalopram
T1 construct: expressed in transfected cells

[2] = system: striatal DAT; assay: PET imaging in awake rhesus monkeys; format: in vivo, rhesus monkey
Procedure: The regional kinetics of [^18F] […] Both [^18F] […] [^18F] […] The peak uptake ratio of striatumwcerebellum was 4:1 at 20 minutes for [^18F] […] 6d. The in vivo ratio of [1^18F] […] FECNT, 5:1. [^18F]

[3] = molecular target: T2, rat brain DAT (Rattus norvegicus, UniProt P23977); assay: In vivo specificity: RTI-113 block before the 18F ligand in rats; details: for effect of RTI-113 on uptake in the striatum: RTI-113 5 mg/kg i.v. 15 minutes prior, 60 minutes
T2 construct: from tissue; host or cells: brain of living male Sprague Dawley rats (striatum, cortex, cerebellum dissected)
Procedure: To determine the in vivo specificity of FBNT analogs [^18F] […] 6a, 6d and 6e. The rats were sacrificed 60 minutes after injection of [^18F] […] 6a, 6d and 6e, in the DAT transporter rich striatum.

[4] = molecular target: T3, human DAT (Homo sapiens, UniProt Q01959); assay: Competitive binding in transfected cell lines, [3H]WIN 35428
T3 construct: expressed in transfected cells

[5] = molecular target: T4, norepinephrine transporter (Homo sapiens, UniProt P23975); assay: Competitive binding in transfected cell lines, [3H]Nisoxetine
T4 construct: expressed in transfected cells

[6] = In vivo regional brain tissue distribution of 18F-labeled ligands in rats; design: species or system Sprague Dawley rats; details: rat; for Regional uptake of radioactivity, Cerebellum / Regional uptake of radioactivity, Cortex (Cx) / Regional uptake of radioactivity, Striatum / S/Cereb (striatum to cerebellum ratio) / S/Cx (striatum to cortex ratio) / Uptake of radioactivity, Blood / Uptake of radioactivity, Brain: i.v., 18F-labeled
Source text: The in vivo regional brain tissue distribution of [^18F]

[7] = [3H]Citalopram, cells transfected with human SERT, read-out: 5-HTT, Ki
[8] = 60 min, 5 mg/kg RTI-113 i.v. 15 minutes prior
[9] = [3H]Nisoxetine, transfected cell lines, read-out: NET, Ki
[10] = at 60 minutes compared to 5 minutes post injection
[11] = at 120 minutes compared to 5 minutes post injection
[12] = [3H]WIN 35428 as reference, cells transfected with human DAT, read-out: DAT, Ki

T4 sequence (P23975 whole entry): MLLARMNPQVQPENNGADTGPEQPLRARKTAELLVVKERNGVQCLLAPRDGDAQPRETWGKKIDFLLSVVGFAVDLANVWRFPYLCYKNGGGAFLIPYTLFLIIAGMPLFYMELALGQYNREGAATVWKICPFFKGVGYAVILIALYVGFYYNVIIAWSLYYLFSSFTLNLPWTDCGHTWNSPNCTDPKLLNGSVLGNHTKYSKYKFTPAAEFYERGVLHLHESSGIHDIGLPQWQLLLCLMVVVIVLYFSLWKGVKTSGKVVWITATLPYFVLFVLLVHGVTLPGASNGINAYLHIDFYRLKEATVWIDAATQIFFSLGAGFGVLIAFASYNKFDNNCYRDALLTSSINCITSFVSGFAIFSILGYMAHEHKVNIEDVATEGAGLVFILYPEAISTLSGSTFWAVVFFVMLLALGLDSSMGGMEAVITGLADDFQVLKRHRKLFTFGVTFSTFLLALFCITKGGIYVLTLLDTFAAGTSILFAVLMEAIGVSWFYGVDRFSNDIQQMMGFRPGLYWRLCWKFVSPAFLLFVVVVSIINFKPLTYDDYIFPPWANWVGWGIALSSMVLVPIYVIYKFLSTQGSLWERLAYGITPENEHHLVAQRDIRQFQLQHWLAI
T3 sequence (Q01959 whole entry): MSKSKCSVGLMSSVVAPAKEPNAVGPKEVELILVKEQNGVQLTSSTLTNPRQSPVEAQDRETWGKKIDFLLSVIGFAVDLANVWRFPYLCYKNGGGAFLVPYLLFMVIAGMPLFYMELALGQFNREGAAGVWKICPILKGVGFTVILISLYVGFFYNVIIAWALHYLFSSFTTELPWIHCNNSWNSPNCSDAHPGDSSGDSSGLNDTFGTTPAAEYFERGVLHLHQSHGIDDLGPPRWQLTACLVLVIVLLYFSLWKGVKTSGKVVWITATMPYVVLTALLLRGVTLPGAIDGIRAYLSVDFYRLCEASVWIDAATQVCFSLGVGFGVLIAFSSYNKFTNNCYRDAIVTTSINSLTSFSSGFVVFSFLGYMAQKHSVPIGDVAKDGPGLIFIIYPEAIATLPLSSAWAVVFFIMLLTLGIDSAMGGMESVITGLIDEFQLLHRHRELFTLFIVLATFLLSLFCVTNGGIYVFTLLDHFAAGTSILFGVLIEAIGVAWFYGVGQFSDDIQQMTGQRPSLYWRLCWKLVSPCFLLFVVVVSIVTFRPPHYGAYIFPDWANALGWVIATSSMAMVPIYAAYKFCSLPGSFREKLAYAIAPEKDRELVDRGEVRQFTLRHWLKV
T2 sequence (P23977 whole entry): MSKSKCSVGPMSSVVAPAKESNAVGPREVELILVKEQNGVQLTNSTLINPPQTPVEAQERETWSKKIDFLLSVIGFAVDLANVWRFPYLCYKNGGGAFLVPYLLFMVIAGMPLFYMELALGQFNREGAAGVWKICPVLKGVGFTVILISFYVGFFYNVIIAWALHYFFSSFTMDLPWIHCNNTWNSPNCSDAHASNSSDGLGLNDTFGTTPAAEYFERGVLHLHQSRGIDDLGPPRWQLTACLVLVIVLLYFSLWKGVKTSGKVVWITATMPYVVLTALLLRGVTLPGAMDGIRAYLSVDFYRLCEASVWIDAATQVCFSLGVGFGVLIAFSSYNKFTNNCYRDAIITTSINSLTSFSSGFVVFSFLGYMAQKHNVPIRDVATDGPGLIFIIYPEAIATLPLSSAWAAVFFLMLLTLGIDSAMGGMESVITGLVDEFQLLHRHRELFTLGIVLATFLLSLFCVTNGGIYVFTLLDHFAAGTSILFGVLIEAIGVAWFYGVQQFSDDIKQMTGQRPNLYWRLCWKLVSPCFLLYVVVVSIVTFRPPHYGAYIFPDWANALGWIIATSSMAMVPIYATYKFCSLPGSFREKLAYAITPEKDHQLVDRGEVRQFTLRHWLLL
T1 sequence (P31645 whole entry): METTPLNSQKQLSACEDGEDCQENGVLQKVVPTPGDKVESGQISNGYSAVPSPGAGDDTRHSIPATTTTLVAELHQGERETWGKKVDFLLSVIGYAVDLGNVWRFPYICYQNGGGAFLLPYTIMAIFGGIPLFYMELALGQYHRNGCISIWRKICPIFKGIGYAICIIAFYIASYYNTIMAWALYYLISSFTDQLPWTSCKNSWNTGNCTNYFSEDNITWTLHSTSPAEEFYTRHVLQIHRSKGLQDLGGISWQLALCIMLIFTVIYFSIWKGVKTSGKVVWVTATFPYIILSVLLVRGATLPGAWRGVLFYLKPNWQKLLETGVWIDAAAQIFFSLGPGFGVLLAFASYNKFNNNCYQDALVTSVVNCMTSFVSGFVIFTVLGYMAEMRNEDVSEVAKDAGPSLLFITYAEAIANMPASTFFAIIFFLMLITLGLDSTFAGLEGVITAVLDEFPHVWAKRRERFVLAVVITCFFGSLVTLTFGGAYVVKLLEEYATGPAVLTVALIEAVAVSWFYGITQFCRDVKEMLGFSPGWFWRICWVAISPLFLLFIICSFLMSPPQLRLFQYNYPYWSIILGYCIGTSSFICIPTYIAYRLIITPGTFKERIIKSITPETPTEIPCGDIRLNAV

With “N-((E)-4-fluorobut-2-en-1-yl)-2β-carbomethoxy-3β-phenylnortropane [6a]” as the compound, how does the Ki [1, 7] read?
The Ki was 102 nM.

And the “retention of radioactivity in the striatum” value ([2]; awake rhesus monkey, PET images)?
Its value is “no visible retention of radioactivity in the striatum”.

What about the “Regional uptake of radioactivity, Cerebellum” value (“Regional uptake … Cerebellum” below) [3, 8] of the same compound?
Its value is 0.09 % dose/g.

What about the “Regional uptake of radioactivity, Cortex (Cx)” value (from here on “Regional uptake … (Cx)”) [3, 8] of the same compound?
The value was 0.10 % dose/g.

What about the “Regional uptake of radioactivity, Striatum” value (“Regional uptake … Striatum” for short) [3, 8] of the same compound?
Its value is 0.11 % dose/g.

What about the “S/Cereb (striatum to cerebellum ratio)” value [3, 8] of the same compound?
Its value is 1.22.

And the “S/Cx (striatum to cortex ratio)” value [3, 8]?
The value was 1.10.

What about the “Uptake of radioactivity, Blood” value [3, 8] of the same compound?
The value was 0.12 % dose/g.

And the “Uptake of radioactivity, Brain” value [3, 8]?
Its value is 0.07 % dose/g.

And the “effect of RTI-113 on uptake in the striatum” value [3]?
Its value is “significantly blocked”.

And the “selectivity for DAT over SERT” value ([4]; from binding in transfected cells)?
Its value is 14 times.

What about the “selectivity for DAT” value ([4]; in vitro competitive binding) of the same compound?
Its value is “very high selectivity”.

What about the Ki [5, 9] of the same compound?
The Ki was > 10000 nM.

What about the “clearance from striatal tissue” value [6, 10] of the same compound?
The value was 75%.

What about the “clearance from striatal tissue” value [6, 11] of the same compound?
Its value is 90%.

What about the “Regional uptake … Cerebellum” value ([6]; 5 min) of the same compound?
The value was 0.55 % dose/g.

And the “Regional uptake … (Cx)” value ([6]; 5 min)?
Its value is 0.84 % dose/g.

And the “Regional uptake … Striatum” value ([6]; 5 min)?
Its value is 1.25 % dose/g.

What about the “S/Cereb (striatum to cerebellum ratio)” value ([6]; 5 min) of the same compound?
Its value is 2.27.

What about the “S/Cx (striatum to cortex ratio)” value ([6]; 5 min) of the same compound?
The value was 1.49.

And the “Uptake of radioactivity, Blood” value ([6]; 5 min)?
Its value is 0.22 % dose/g.

What about the “Uptake of radioactivity, Brain” value ([6]; 5 min) of the same compound?
The value was 0.58 % dose/g.

What about the “Regional uptake … Cerebellum” value ([6]; 30 min) of the same compound?
The value was 0.12 % dose/g.

And the “Regional uptake … (Cx)” value ([6]; 30 min)?
Its value is 0.19 % dose/g.

And the “Regional uptake … Striatum” value ([6]; 30 min)?
The value was 0.36 % dose/g.

And the “S/Cereb (striatum to cerebellum ratio)” value ([6]; 30 min)?
The value was 3.0.

What about the “S/Cx (striatum to cortex ratio)” value ([6]; 30 min) of the same compound?
Its value is 1.89.

And the “Uptake of radioactivity, Blood” value ([6]; 30 min)?
The value was 0.15 % dose/g.

And the “Uptake of radioactivity, Brain” value ([6]; 30 min)?
Its value is 0.13 % dose/g.

And the “Regional uptake … Cerebellum” value ([6]; 60 min)?
The value was 0.09 % dose/g.

And the “Regional uptake … (Cx)” value ([6]; 60 min)?
The value was 0.13 % dose/g.

And the “Regional uptake … Striatum” value ([6]; 60 min)?
Its value is 0.25 % dose/g.

What about the “S/Cereb (striatum to cerebellum ratio)” value ([6]; 60 min) of the same compound?
The value was 2.78.

What about the “S/Cx (striatum to cortex ratio)” value ([6]; 60 min) of the same compound?
Its value is 1.92.

And the “Uptake of radioactivity, Blood” value ([6]; 60 min)?
Its value is 0.11 % dose/g.

What about the “Uptake of radioactivity, Brain” value ([6]; 60 min) of the same compound?
Its value is 0.09 % dose/g.

And the “Regional uptake … Cerebellum” value ([6]; 120 min)?
Its value is 0.07 % dose/g.

And the “Regional uptake … (Cx)” value ([6]; 120 min)?
Its value is 0.09 % dose/g.

And the “Regional uptake … Striatum” value ([6]; 120 min)?
The value was 0.13 % dose/g.

And the “S/Cereb (striatum to cerebellum ratio)” value ([6]; 120 min)?
Its value is 1.86.

What about the “S/Cx (striatum to cortex ratio)” value ([6]; 120 min) of the same compound?
Its value is 1.86.

And the “Uptake of radioactivity, Blood” value ([6]; 120 min)?
Its value is 0.07 % dose/g.

What about the “Uptake of radioactivity, Brain” value ([6]; 120 min) of the same compound?
Its value is 0.07 % dose/g.

With COC(=O)[C@H]1[C@@H](c2ccc(I)cc2)C[C@@H]2CC[C@H]1N2C/C=C/CF [6c, N-((E)-4-fluorobut-2-en-1-yl)-2β-carbomethoxy-3β-(4-iodophenyl)nortropane] as the compound, how does the Ki [1] read?
The Ki was 0.21 nM.

And the Ki [4]?
Its Ki is 0.17 nM.

For COC(=O)[C@H]1[C@@H](c2ccc(Cl)cc2)C[C@@H]2CC[C@H]1N2C/C=C/I [MMG/142, IPT, reference compound], which Ki [1] is on record?
Its Ki is 4.9 nM.

What about the Ki [4] of the same compound?
The Ki was 1.16 nM.

What about the Ki [5] of the same compound?
The Ki was 48.7 nM.

For COC(=O)[C@H]1[C@@H](c2ccc(F)cc2)C[C@@H]2CC[C@H]1N2C/C=C/I [Altropane, reference compound], which Ki [1, 7] is on record?
Its Ki is 55.4 nM.

And the Ki [4, 12]?
Its Ki is 0.78 nM.

And the Ki [5, 9]?
The Ki was > 10000 nM.

What does the source list for COC(=O)[C@H]1[C@@H](c2ccc(Br)cc2)C[C@@H]2CC[C@H]1N2C/C=C/CF [6b, N-((E)-4-=fluorobut-2-en-1-yl)-2β-carbomethoxy-3β-4-(4-bromophenyl)nortropane]?
Ki [1]: 0.85 nM; Ki [5]: 91 nM

For COC(=O)[C@H]1[C@@H](c2ccc(F)cc2)C[C@@H]2CC[C@H]1N2C/C=C/CF [6e, N-((E)-4-fluorobut-2-en-1-yl)-2β-carbomethoxy-3β-(4-fluorophenyl)nortropane], which “time at which transient equilibrium in the striatum was reached” value ([2]; awake rhesus monkey, post injection) is on record?
The value was 30 min and 20 min.

What about the “early transient equilibrium at the striatal DAT” value ([2]; awake rhesus monkeys, PET) of the same compound?
Its value is “achieved an early transient equilibrium”.

What about the “effect of RTI-113 on uptake in the striatum” value [3] of the same compound?
The value was “significantly blocked”.

And the Ki [4, 12]?
Its Ki is 1.7 nM.

What about the “clearance from striatal tissue” value [6, 10] of the same compound?
The value was 70%.

And the “clearance from striatal tissue” value [6, 11]?
Its value is 85%.

Which “initial uptake in striatum and cerebellum” value ([2]; awake rhesus monkeys) does the source give for COC(=O)[C@H]1[C@@H](c2ccc(Cl)cc2)C[C@@H]2CC[C@H]1N2C/C=C\CF [6f, N-((Z)-4-fluorobut-2-en-1-yl)-2β-carbomethoxy-3β-(4-chlorophenyl) nortropane] here?
The value was “high initial uptake in the striatum and very little uptake in the cerebellum”.
